US20150241410A1, “INHIBITORS OF CENTRAL NERVOUS SYSTEM VASOACTIVE INHIBITORY PEPTIDE RECEPTOR 2” (The Trustees Of Columbia University In The City Of New York, priority 2012, published 2015)

Legend:
VIPR2 = molecular target: T1, VIPR2 (Homo sapiens, UniProt P41587); assay: BRET-based VIPR2 activation assay (CAMYEL cAMP sensor, CHO cells, VIP background); assay type: cell-based; conditions: compared with Compound 1 or other compounds (FIG. 1C, FIG. 5B)
T1 construct: expressed in transfected cells
T1 sequence (P41587 24-438): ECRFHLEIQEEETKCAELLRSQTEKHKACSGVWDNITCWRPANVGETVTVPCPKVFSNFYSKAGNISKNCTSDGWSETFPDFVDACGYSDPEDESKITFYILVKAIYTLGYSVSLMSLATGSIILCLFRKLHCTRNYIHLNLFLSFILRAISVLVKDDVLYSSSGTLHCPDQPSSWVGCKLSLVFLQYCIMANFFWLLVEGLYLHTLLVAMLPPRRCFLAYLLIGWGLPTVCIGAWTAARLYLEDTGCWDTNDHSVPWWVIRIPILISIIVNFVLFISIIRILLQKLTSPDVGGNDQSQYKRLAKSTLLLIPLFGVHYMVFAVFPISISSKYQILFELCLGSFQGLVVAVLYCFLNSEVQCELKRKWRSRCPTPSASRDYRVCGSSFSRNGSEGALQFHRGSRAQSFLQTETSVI
Method: FIG. 5A-B. Results of BRET-based VIPR2 activation assays in cells expressing both the VIPR2 receptor and CAMYEL (see FIG. 1A for schematic). a) Inhibitory dose-response curves on treatment of CHO cells with increasing concentrations of a batch of antagonists against a background of VIP activation (VIP=5 nM).
In such a system, a detector cell is used which expresses both the VIPR2 receptor and “CAMYEL,” a YFP-Epac-RLuc8 BRET sensor construct. This construct includes Epac1, a guanine nucleotide exchange factor activated by direct binding of cAMP, fused with an enhanced YFP and Renilla luciferase 8 (Rluc8) allowing BRET upon cAMP-induced conformational changes (Jiang et al., 2007, J Biol Chem. 282:10576-10584). In response to elevated cAMP levels, there is a conformational change in Epac and therefore a change in the proximity of the fused chromophores, Rluc8 and YFP, resulting in measurable energy transfer. Coexpression of this BRET construct with VIPR2. optionally tagged at the N-terminus with a signal peptide and FLAG epitope (SF-VIPR2), for example in HEK293 cells, allows for detection of a VIPR2-specific response to cAMP. BRET readout may be calculated by quantifying the ratio of the light emitted by the acceptor, YFP (λ=525 nm), over the emission from the donor, RLuc8 (λ=485 nm). The proximity of the donor and acceptor, and therefore the BRET ratio, decreases in the presence of cAMP. In non-limiting specific embodiments, a stable cell line may be generated for this assay using the Flp-In T-Rex system in HEK293 cells. This system allows site-specific single copy integration of the gene of interest and control of expression levels using the Tet-repressor site making receptor expression tetracycline-inducible. For example, a CAMYEL and VIPR2 expressing line may be induced with 0.01 μg/ml tetracycline, then, 24 hours later cells may be collected and distributed into 96-well plates. After treatment with candidate inhibitor compound, for example at 5, 1 and 0.5 μM concentrations, cells may be incubated with the light emitting luciferin, coelenterazine H, for 5 min and incubated for 5 min with VIP at increasing concentrations, for example ranging from 100 pM to 10 μM. The fluorescence and luminescence may then be quantified, for example using a PHERAstar (BMG) plate reader. […] Alternatively, analogous experiments may be performed using human cells harvested from a patient having a VIPR2 copy number variation, for example (but not by way of limitation) pluripotent stem cells prepared from such a patient and then transfected with a CAMYEL construct.
A series of compounds were prepared using a synthetic method analogous to that set forth in Scheme 1, above, and then tested for their ability to inhibit VIP-induced cAMP elevation and β-arrestin recruitment, as described herein (Discoverx Corporation, Fremont, Calif., US). Compound activities were also tested in a BRET-based assay, as described herein. The results are shown below in Tables 1-4, above.
Numerous cellular assays were developed that were able to detect VIP responses absent of interference from non-specific vasopressin receptors using this CHO based system. VIPR2 is a Gs coupled receptor. Activation of VIPR2 by VIP leads to both an elevation in cAMP signaling and the recruitment of β-arrestin. A variety of combinations can be transiently transfect into these CHO cells for the assessment of cellular responses to VIP. For the BRET readout CHO cell lines expressing an YFP-Epac-RLuc8 (CAMYEL) BRET sensor were used to detect changes in cAMP. This construct includes Epac1, a guanine nucleotide exchange factor activated by direct binding of cAMP, fused to an enhanced YFP and RLuc8 allowing a change in BRET upon cAMP-induced conformational changes. The key for medium to high throughput screening assays is the use of stable cell lines allowing the continuous assaying of multiple compounds with the ability to generate large numbers of cells for rapid use. […]

hVIPR1 = molecular target: T2, hVIPR1 (Homo sapiens, UniProt P32241); assay: CAMYEL BRET cAMP assay in transient cell lines expressing hVIPR1; assay type: cell-based; conditions: transient cell lines expressing hVIPR1 and CAMYEL (FIG. 7)
T2 construct: expressed in transfected cells; host or cells: transient transfection with CAMYEL
T2 sequence (P32241 31-457): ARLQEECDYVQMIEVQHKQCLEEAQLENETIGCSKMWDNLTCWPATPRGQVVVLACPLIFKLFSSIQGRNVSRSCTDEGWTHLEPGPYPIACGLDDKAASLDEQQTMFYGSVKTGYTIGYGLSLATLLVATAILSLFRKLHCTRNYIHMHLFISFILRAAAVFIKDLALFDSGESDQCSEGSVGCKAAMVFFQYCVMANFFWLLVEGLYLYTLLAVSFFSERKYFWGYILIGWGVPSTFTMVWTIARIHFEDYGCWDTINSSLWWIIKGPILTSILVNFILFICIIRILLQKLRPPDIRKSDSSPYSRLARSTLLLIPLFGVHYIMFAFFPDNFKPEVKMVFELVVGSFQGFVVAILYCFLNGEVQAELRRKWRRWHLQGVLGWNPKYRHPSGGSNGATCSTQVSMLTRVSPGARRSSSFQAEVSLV
Text: These assays are now being used for reliable and rapid quantification of VIPR2 responses to various antagonists under development for this receptor. This assay can also be used to evaluate agonists to VIPR2 and allosteric compounds, in addition to addresing the functional selectivity of different compounds, as it is possible to address multiple pathways effected by modulation of VIPR2 using this second messenger detection systems (cAMP and β-arrestin). This cellular assay for the detection of […] is applicable to multiple members of the […]. To this end lines were also developed expressing CAMYEL together with VIPR1 and PACAP1R (both the human and mouse forms) using transient transfection. This allows for the confirmation of specificity of novel antagonists to the VIPR2 receptor in addition to providing the ability to assay VIPR1 and PACAPR1 antagonists, agonists and allosteric modulators. […] These assays allow assays of VIPR2 antagonist, agonists and other compounds acting at […] in a specific, selective, rapid and medium to high throughput manner.

specificity for VIPR2 over hVIPR1 (hVIPR1): VIPR2 specificity
Compound: CC(=O)c1ccc(S(=O)(=O)NC[C@@H](O)C[C@@H](Cc2ccccc2)C(=O)N[C@H]2c3ccccc3C[C@H]2O)cc1 [K]
VIPR2 inhibition in BRET-based assay, in words (VIPR2): significantly improved activity as an antagonist at VIPR2
